One series deals with Sprague-Dawley rats. As to conditions: cited from earlier work; for urine output: Sprague-Dawley rats; for sedation and hyperphagia: rat, in vivo.
The subject of series [1] is patients. The conditions noted are these: human trials; cited from earlier work.
Another series deals with Pkd1 RC/RC mice. The series can be described thus: Chronic daily oral gavage of KOA in Pkd1 RC/RC mice (Example 1, Studies 1 and 2). In kind it is in vivo. As to conditions: daily oral gavage 4 or 8 weeks; for fibrosis area in the kidney / serum creatinine and blood urea levels / cyst size and numbers: Pkd1 RC/RC mice; for cyst size and numbers: 5 mg/kg JT-09 or 100 µg/kg nalfurafine; for GFR: mice with PKD. As to the method: Pkd1 RC/RC mice were used as the polycystic kidney disease model. 12 weeks old mice were given a KOA treatment (JT-09 or nalfurafine) or a vehicle at a dose of 5 mg/kg for JT-09 or 100 µg/kg for nalfurafine daily for 4 or 8 weeks.
Group 1: Pkd1 RC/RC mice + treatment (JT09 or nalfurafine) oral gavage (5 mg/kg for JT-09 or 100 µg/kg for nalfurafine) daily. n=24
Group 2: Pkd1 RC/RC mice + vehicle oral gavage daily. n=24
At 16 weeks old, 12 mice from both groups 1 and 2 were selected. These mice were each placed in a metabolic cage to collect urine for three 24-hour periods (a total of 72 hours). Each mouse was placed in a separate metabolic cage, as opposed to all mice in a single metabolic cage. Daily water intake for each mouse is also recorded. Mice were then deep anesthetized, and blood was be taken from their artery. Mice were then sacrificed. Both kidneys were perfused with PBS and fixed in neutral buffered formalin. Kidneys were processed for paraffin embedding and sectioning. H&E and picrosirus stain were performed on each section. Cystic index including cysts size and number were evaluated by a pathologist. Fibrosis was evaluated by the pathologist as well; in addition, a fibrotic score was given. The serum creatinine and blood urea level in the blood was then measured.
At 20 weeks old, the other set of 12 mice in both groups was then sacrificed and the same experiment was be performed as described herein.
At 16 weeks old, 12 mice from each group were anesthetized. The right jugular vein was catheterized for inulin infusion, and the bladder was catheterized for urine collection. GFR was evaluated based on the excretion rate of FITC-sinistrin.
At 20 weeks old, the same GFR measure was be repeated on the other 12 mice from each group.

For series [2] the following is noted: in vivo; cited from earlier work.
A further series deals with conscious rats. The conditions noted are these: cited from earlier work.
The subject of the next series is Pkd1^RC/RC mice. The series can be described thus: Acute oral gavage of nalfurafine, urine output in PKD mice. In kind it is in vivo. As to the method:
Volume expansion, give mice saline at the dose of 20 ml/kg. (b) dose responsive curve of nalfurafine in Pkd1^RC/RC mice. Y axis, accumulative urine output of 5 hours after dosing. n=7-10 in each group.
ADPKD patients have an elevated level of vasopressin. Based on this observation, tolvaptan was discovered and later approved by its mechanism of action of blocking V2 receptors on the distal tubules. However, this also leads to the side effect of polyuria and severe thirst. […] Therefore, the long-term effects by nalfurafine on urine output can be limited unlike tolvaptan.
Therefore, we will give PKD mice nalfurafine daily at the maximum responsive dose 240 ug/kg/day for chronic studies in both Aim 1 and Aim 2 to obtain the greatest benefits.

The test system of series [3] is patients. As to conditions: cited from earlier work.
Another series relates to Sprague Dawley rats. The series is described as follows: Stability of drug dissolved in drinking water, read out as urine output in rats. It is filed as in vivo. As to the method:
Day 1, the fresh made drug was given to rats. Day 4, the drug made on day 1 was given to the same rats. Veh, vehicle; Nal, nalfurafine. n=3 for each group.
Route of administration: Drug will be given orally in drinking water. We have performed a study to test the stability of the drug. […] We then left this water bottle at room temperature for three days, and we then gave this water to the same rats again. […] Therefore, the drug is stable for 3 days when it is dissolved in water at room temperature. We will make fresh nalfurafine in drinking water every 3 days in the chronic studies in both Aim 1 and Aim 2. We will give another group of mice the standard care of tolvaptan to serve as comparison of the treatment.

In another series the target is kappa receptors (Homo sapiens, UniProt P41145). The conditions noted are these: cited from earlier work.
kappa receptors, sequence (P41145 whole entry): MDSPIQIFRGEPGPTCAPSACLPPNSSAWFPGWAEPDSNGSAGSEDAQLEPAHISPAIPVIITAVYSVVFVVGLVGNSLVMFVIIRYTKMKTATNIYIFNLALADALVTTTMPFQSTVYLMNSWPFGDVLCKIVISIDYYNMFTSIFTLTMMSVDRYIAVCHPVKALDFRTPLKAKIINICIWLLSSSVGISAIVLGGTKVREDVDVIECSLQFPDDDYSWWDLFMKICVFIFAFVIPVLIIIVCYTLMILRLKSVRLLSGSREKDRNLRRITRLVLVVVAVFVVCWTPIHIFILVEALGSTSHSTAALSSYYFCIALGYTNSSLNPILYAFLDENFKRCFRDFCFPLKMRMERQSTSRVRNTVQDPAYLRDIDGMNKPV
The subject of the next series is WT mice. The series is described as follows: Oral gavage of nalfurafine, urine output in wild type mice. It is filed as in vivo. As to the method:
The dose volume is 20 ml/kg.
Polycystic kidney disease (PKD) affects one person in every 400 to 1000 people in the U.S., which is associated with substantial mortality. […] There is no cure for PKD, and currently only one treatment is available to delay progression: tolvaptan, a vasopressin V2 receptor antagonist. This drug is expensive and indicated only in some patients who are at high risk for progression. The efficacy of tolvaptan proves that an active vasopressin pathway plays a critical role in this disease progression. However, the drug carries risk of severe hepatic toxicity, and patients treated with tolvaptan are suffering serious side effects, such as severe thirst and polyuria due to inhibition of V2 receptor in the distal nephrons. […] In addition to their inhibitory effect on vasopressin secretion and subsequent diuretic effect, KOAs can produce an anti-inflammatory micro-environment at the cellular level, which protects cardiac tissue from fibrosis.

The conditions of series [4]: cited from earlier work.
A further series relates to affected skin. The conditions noted are these: atopic dermatitis and pruritus; cited from earlier work.
The test system of series [5] is patients. The conditions noted are these: patients treated with tolvaptan; cited from earlier work.
For series [6] the following is noted: cited from earlier work. The source holds these as a separate data set.
Where [7] appears, read: i.c.v. or i.v. infusion, conscious rats.

Where two headings read alike, the source gives them in different places.

On to `CC(C)C1CCC(N2CCC(n3c(CO)c(CO)c4ccccc43)CC2)CC1` (centres unmarked) [AT-390], for which, in the series on Sprague-Dawley rats, the urine output entry is on record as “increase urine output”.

Turning to “Ac—Arg—Tyr—Tyr—Arg—Trp—Lys—Lys—Lys—Lys—Lys—Lys—Lys—NH2 (Ac-RYYRWKKKKKKK-NH2) [ZP120, peptide NOP receptor partial agonist]”, the blood pressure result with patients [1] was “efficacious in lowering blood pressure”.

For the molecule `CNC(=O)CC1C(=O)N(C2CCN(C3CCC(C(C)C)CC3)CC2)c2ccccc21` (centres unmarked) [AT-403], in the series on Sprague-Dawley rats, the urine output entry is on record as “increase urine output”; the sedation and hyperphagia result was “sedation and hyperphagia”.

As to `CCCC[C@@H](NC(=O)[C@@H](Cc1ccccc1)NC(=O)[C@H](N)Cc1ccccc1)C(=O)N[C@H](CCCCN(C)C)C(=O)NCc1ccncc1` [JT09], in the series on Pkd1 RC/RC mice, the “fibrosis area in the kidney” value is reported as “reduce fibrosis area in the kidney”; the “serum creatinine and blood urea levels” value was “decrease serum creatinine and blood urea levels”; the “cyst size and numbers” value is “decrease cyst size and numbers”; the GFR result is “improve GFR”. For the same molecule, in series [2], the serum creatinine levels result is given as “reduces serum creatinine levels” and the urine output result is given as “increases urine output”.

“nociceptin (FGGFTGARKSARKLANQ; Nociceptin; UniProt Q13519 130-146, looked up) [17 amino acid peptide, classical ligand of the nociceptin opioid peptide receptor]”: the “circulating levels of vasopressin” value with conscious rats (administered centrally) was “reduces circulating levels of vasopressin”. Also, the “blood pressure, heart rate and peripheral sympathetic nerve activity” value with conscious rats (centrally (i.c.v.) or at high doses peripherally (i.v. bolus or infusion)) was “decreases blood pressure, heart rate and peripheral sympathetic nerve activity”. Further, in the series on conscious rats (setting [7]), the urinary sodium excretion entry is on record as “decrease in urinary sodium excretion” and the urine flow rate entry was “marked increase in urine flow rate”.

Regarding `CC(C)C1CCC(N2CCC(N3C(=O)C(=O)c4ccccc43)CC2)CC1` (centres unmarked) [AT-090], in the series on Sprague-Dawley rats, the urine output entry was “increase urine output”; the sedation and hyperphagia result is “sedation and hyperphagia”.

In the case of `CN(C(=O)/C=C/c1ccoc1)[C@@H]1CC[C@@]2(O)[C@H]3Cc4ccc(O)c5c4[C@@]2(CCN3CC2CC2)[C@H]1O5` [nalfurafine], in the series with Pkd1^RC/RC mice (Pkd1^RC/RC mice, accumulative urine output of 5 hours after dosing), the “dose dependence of the increase in urine output” value is “dose dependent”. The “dose with the greatest increase in 5-hour urine output” value with Pkd1^RC/RC mice (Pkd1^RC/RC mice, doses of 100, 130, 180, 240 and 320 ug/kg) worked out at 0.24 mg/kg. For the same molecule, in the series with Pkd1^RC/RC mice (acute study), the “highest effective dose in acute study” value is 0.24 mg/kg. In addition, the “urine output compared with vehicle treatment” value in the series on Pkd1^RC/RC mice (oral administration, mice with PKD, within the 3 hours after dosing (FIG. 24a: 240 ug/kg)) is on record as “significant increase in urine output”. Further, in the series on Pkd1 RC/RC mice, the “fibrosis area in the kidney” value is “reduce fibrosis area in the kidney”; the “serum creatinine and blood urea levels” value was “decrease serum creatinine and blood urea levels”; the “cyst size and numbers” value was “decrease cyst size and numbers”; the GFR result was “improve GFR”. Moreover, the “polyuria as a side effect” value in the series with patients [3] (clinical trials of nalfurafine) is reported as “none of the clinical trials of nalfurafine have reported polyuria”. The “CNS-mediated side effects of traditional opioids (nausea/vomiting, sedation, respiratory depression, abuse potential, addiction, euphoria)” value in the series with patients [3] (human, in vivo) is recorded as “does not produce the CNS-mediated side effects”. In the series with patients [3] (one year post-marketing surveillance study), the “extreme thirst and polyuria” value is given as “does not cause extreme thirst nor polyuria”. The “insomnia (worst side effect), share of patients” value with patients [3] (post marketing analysis of 3,762 patients) is listed as “approximately 3%”. Also, in the series with Sprague Dawley rats (rats, first day, 30 ug/kg single dose), the “diuresis after fresh drug dissolved in water” value is reported as “produced diuresis”. In addition, the “magnitude of increase in urine output, day 4 versus day 1” value with Sprague Dawley rats (same rats, drug solution kept at room temperature for three days) was “the same on day 4 as it was on day 1”. For the same molecule, the “stability when dissolved in water at room temperature” value with Sprague Dawley rats (water, room temperature) is on record as 3 days. The “selectivity for kappa receptors” value on kappa receptors is on record as “highly selective for kappa receptors”. Moreover, in the series on WT mice (mouse, in vivo), the “behavioral or adverse effects” value was “does not produce any apparent behavioral or adverse effects”. Moreover, the urine output entry with WT mice (oral gavage, wild type mice) was “marked increase in urine output”. In addition, the half life in series [4] (healthy volunteers) was 8 h. In addition, the half life in series [4] (hemodialysis patients) was 10 to 15 h. Moreover, in the series with affected skin, the “infiltration of CD4+ and CD8+ T cells” value was “reduced infiltration of CD4+ T cells and CD8+ T cells in the affected skin”.

As for `CC(C)C1CCC(N2CCC(N3C(=O)/C(=N\O)c4ccccc43)CC2)CC1` (centres unmarked) [AT-127], in the series on Sprague-Dawley rats, the urine output result is given as “increase urine output”; the sedation and hyperphagia result was “sedation and hyperphagia”.

Consider `Cc1ccccc1C(=O)Nc1ccc(C(=O)N2CCCC(O)c3cc(Cl)ccc32)c(C)c1` (centres unmarked) [tolvaptan], for which the undesirable side effects result in the series on patients [5] is “severe thirst, polyuria and hepatic toxicity”. For the same molecule, the water solubility entry in series [6] is on record as “poor water solubility”.

The values are drawn from patent US20230181569A1, “COMPOSITIONS AND METHODS TO TREAT POLYCYSTIC KIDNEY DISEASE” (Board of Supervisors of Louisiana State University and …, priority 2020, published 2023).
